Experimental data: ChEMBL document CHEMBL1201862, “PubChem BioAssay data set” (2004)
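Where inhibition never reached the appropriate level, the endpoint shown equals the highest concentration tested. Otherwise, values were interpolated linearly from a five-concentration, 48-hour dose response in 96-well plates. GI50 = concentration required for 50% inhibition of growth.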 The source made the active and inactive calls. No stated cut-off is given here; in the data, active = GI50 up to about 1.1 µM and inactive = higher.

Tests used:
Assay in all cases: NCI-60 cell line screen, 48 h
A549 = system: A549
HCT-116 = system: HCT-116
HCT-15 = system: HCT-15
HL-60 = system: HL-60
HT-29 = system: HT-29
KM12 = system: KM12
LOX IMVI = system: LOX IMVI
MDA-N = system: MDA-N
NCI-H226 = system: NCI-H226
NCI-H23 = system: NCI-H23
NCI-H522 = system: NCI-H522
NCI/ADR-RES = system: NCI/ADR-RES
SF-268 = system: SF-268
SF-539 = system: SF-539
SK-MEL-2 = system: SK-MEL-2
SK-OV-3 = system: SK-OV-3
SR = system: SR
SW-620 = system: SW-620
TK-10 = system: TK-10
U-251 = system: U-251

| Compound | GI50 (A549) | GI50 (HCT-116) | GI50 (HCT-15) [µM] | GI50 (HL-60) | GI50 (HT-29) | GI50 (KM12) | GI50 (LOX IMVI) | GI50 (MDA-N) | GI50 (NCI-H226) | GI50 (NCI-H23) | GI50 (NCI-H522) | GI50 (NCI/ADR-RES) | GI50 (SF-268) | GI50 (SF-539) | GI50 (SK-MEL-2) | GI50 (SK-OV-3) | GI50 (SR) | GI50 (SW-620) | GI50 (TK-10) | GI50 (U-251) |
| --- | --- | --- | --- | --- | --- | --- | --- | --- | --- | --- | --- | --- | --- | --- | --- | --- | --- | --- | --- | --- |
| Nc1cc(S(N)(=O)=O)ccc1SSc1ccc(S(N)(=O)=O)cc1N | > 100 µM (inactive) | > 100 µM (inactive) | > 100 | > 100 µM (inactive) | > 100 µM (inactive) | > 100 µM (inactive) | > 100 µM (inactive) | > 100 µM (inactive) | > 100 µM (inactive) | > 100 µM (inactive) | > 100 µM (inactive) | > 100 µM (inactive) | > 100 µM (inactive) | > 100 µM (inactive) | > 100 µM (inactive) | > 100 µM (inactive) | 57 µM (inactive) | > 100 µM (inactive) | > 100 µM (inactive) | > 100 µM (inactive) |
| Cn1cnc([N+](=O)[O-])c1Sc1nc(N)nc2c1ncn2Cc1ccccc1 | 25.5 µM (inactive) | 20.7 µM (inactive) | 18 | 18.9 µM (inactive) | 22.5 µM (inactive) | 30 µM (inactive) | 19.6 µM (inactive) | 19.4 µM (inactive) | 23.9 µM (inactive) | 19.2 µM (inactive) | 10.2 µM (inactive) | 51.9 µM (inactive) | 16.5 µM (inactive) | – | 15.8 µM (inactive) | 24.5 µM (inactive) | 17.9 µM (inactive) | 22.9 µM (inactive) | 15.8 µM (inactive) | 21.8 µM (inactive) |
| Nc1nc(N)c2nnn(C[C@H]3CC[C@@H](CO)C3)c2n1 | > 100 µM (inactive) | > 100 µM (inactive) | > 100 | > 100 µM (inactive) | > 100 µM (inactive) | > 100 µM (inactive) | > 100 µM (inactive) | > 100 µM (inactive) | > 100 µM (inactive) | > 100 µM (inactive) | > 100 µM (inactive) | > 100 µM (inactive) | > 100 µM (inactive) | > 100 µM (inactive) | – | > 100 µM (inactive) | > 100 µM (inactive) | > 100 µM (inactive) | > 100 µM (inactive) | > 100 µM (inactive) |
